Source: patent publication US12662494B2, “Optically active bridged piperidine derivative” (Sumitomo Pharma Co., Ltd., priority 2018, dated 2026)
Like-named read-outs stand apart in the source and are kept apart here.

Legend:
[1] = biological target: T1, Menin-MLL binding (His-Menin1-615 and MLL1-172-FLAG) (Homo sapiens, UniProt O00255); experiment: Test 1: inhibition of the menin-MLL binding (HTRF); conditions: for IC50: His-Menin1-615 30 nmol/L, MLL1-172-FLAG 50 nmol/L; for menin-MLL binding inhibition activity (in words): summary of Test 1 table
T1 construct: Menin1-615 wherein 6× His tag and HA tag are inserted in the N-terminus; HA (N); myc (C)
T1 sequence (O00255 1-615 isoform O00255-1): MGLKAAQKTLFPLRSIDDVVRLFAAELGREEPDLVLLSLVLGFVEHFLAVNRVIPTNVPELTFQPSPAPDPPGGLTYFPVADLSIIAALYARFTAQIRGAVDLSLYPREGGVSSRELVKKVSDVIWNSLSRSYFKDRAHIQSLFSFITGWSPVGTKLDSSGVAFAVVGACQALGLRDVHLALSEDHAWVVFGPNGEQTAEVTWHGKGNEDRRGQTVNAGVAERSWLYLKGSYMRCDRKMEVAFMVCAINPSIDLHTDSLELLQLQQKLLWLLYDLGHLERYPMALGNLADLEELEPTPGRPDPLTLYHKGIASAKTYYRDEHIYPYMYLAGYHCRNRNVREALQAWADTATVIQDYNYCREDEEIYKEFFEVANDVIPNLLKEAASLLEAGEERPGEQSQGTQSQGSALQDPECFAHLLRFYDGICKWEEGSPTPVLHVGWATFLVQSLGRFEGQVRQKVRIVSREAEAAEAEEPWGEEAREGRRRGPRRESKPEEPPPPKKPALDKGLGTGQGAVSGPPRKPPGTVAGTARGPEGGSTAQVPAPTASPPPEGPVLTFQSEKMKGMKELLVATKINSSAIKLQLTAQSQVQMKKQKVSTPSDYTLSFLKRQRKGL
Procedure: Test 1: Test for Evaluating the Inhibition of the Menin-MLL Binding
Menin1-615 wherein 6× His tag and HA tag are inserted in the N-terminus, and myc tag is inserted in the C-terminus (hereinafter, referred to as His-Menin1-615), was diluted with an assay buffer (25 mmol/L HEPES, 150 mmol/L NaCl, 1 mmol/L dithiothreitol, 0.5% (w/v) Tween 80, 0.3% (w/v) BSA, 0.3% (w/v) skim milk) to adjust the final concentration to 30 nmol/L. The test compounds were also diluted with the assay buffer to adjust each concentration of the test compounds to 0.005 to 5 μmol/L. The prepared His-Menin1-615 and test compounds were added to a light-shielding 384-well low-volume plate (Corning, #4514) in 2 μL/well and […], respectively, and the plate was covered with a lid for light-shielding (Corning, #3935), and incubated at room temperature for 3 hours. After the incubation, MLL1-172 wherein FLAG tag is inserted in the C-terminus (MLL1-172-FLAG), was separately diluted with the assay buffer to adjust the final concentration to 50 nmol/L. The prepared MLL1-172-FLAG was added to the above plate in 2 μL/well, and the plate was covered with a lid for light-shielding and incubated at room temperature for an hour.
Then, anti-6HIS-d2 antibody (cisbio, 61HISDLA) and anti-FLAGM2-K antibody (cisbio, 61FG2KLA) were diluted with an antibody dilution buffer (50 mmol/L Tris, 150 mmol/L NaCl, 800 mmol/L KF, pH 7.4) to adjust the final concentration to 1.4 μg/mL to prepare an antibody mixture. The prepared antibody mixture was added to the above plate in 10 μL/well, and the plate was covered with a lid and incubated at 4° C. for 17 to 24 hours. After the incubation, the signal was detected with RUBYstar (BMG LABTECH).

RS4; 11 cells = experiment: Test 2: inhibition of cell proliferation, RS4;11; type: cell-based; conditions: for IC50: Homo sapiens, 168 h, RS4;11 cells, 7 days, PrestoBlue cell viability; for cell proliferation inhibition activity, good (in words) / cell proliferation inhibitory activity, potent (in words): summary of Test 2 table, RS4;11 and MOLM-13
Procedure: (§1) Test 2: Test for Evaluating the Inhibition of Cell Proliferation
(§2) RS4; 11 cells were obtained from American Type Culture Collection (ATCC). The cells were cultured at 37° C. in the presence of 5% CO2 in RPMI 1640 medium containing 10% fetal bovine serum and 1% penicillin/streptomycin. MOLM-13 cells were separately obtained from DSMZ (Deutsche Sammlung von Mikroorganismen und Zellkulturen GmbH). The cells were cultured at 37° C. in the presence of 5% CO2 in RPMI 1640 medium containing […] and 1% penicillin/streptomycin.
(§3) The cells were plated to a 96-well plate in 2000 cells/well, each test compound was added thereto to adjust the final concentration of DMSO to 0.1% of DMSO, and the cells were cultured for 7 days. After the cultivation, the cell viability was calculated with PrestoBlue™ Cell Viability Reagent (Invitrogen, A13261). The IC50 value was calculated from a survival curve, that corresponds to the concentration of the test compound at which the cell proliferation inhibition rate is 50%.

MOLM-13 cells = experiment: Test 2: inhibition of cell proliferation, MOLM-13; type: cell-based; conditions: Homo sapiens, 168 h, 7 days, PrestoBlue cell viability
Procedure: as §1, §2, §3

MEIS1 = experiment: Test 3: inhibition of mRNA transcription, MEIS1 in MV4;11 cells; type: cell-based; conditions: for mRNA at 1 μM (% control) MEIS1: MV4;11 cells, 20 to 24 hours, fitted with GAPDH; for mRNA transcription inhibition activity (in words): summary of Test 3 table, MEIS1 and HOXA9, MV4;11 cells, 1 μM
Procedure: (§4) Test 3: Test for the Inhibition of mRNA Transcription with Test Compounds
(§5) MV4; 11 cells were obtained from American Type Culture Collection (ATCC). The cells were cultured at 37° C. in the presence of 5% CO2 in RPMI 1640 medium containing 10% fetal bovine serum and 1% penicillin/streptomycin. To the MV4; 11 cells was added each test compound to adjust the final concentration to 1 μmol/L, and the cells were cultured at 37° C. in the presence of 5% CO2 for 20 to 24 hours. After the incubation, the total RNA was extracted from the cells with RNeasy™ Mini Kit (QIAGEN, 74106), and CDNA was synthesized with Superscript™ VILO™ CDNA Synthesis Kit (Invitrogen, #11754250). By using TaqMan™ Gene Expression Master Mix (Applied Biosystems, 4369016) and TaqMan™ probe (Applied Biosystems), the expression level of mRNA was quantified from the obtained cDNA with 7900HT (Applied Biosystems). The mRNA expression level of each obtained gene was fitted with the expression level of mRNA of GAPDH.

HOXA9 = experiment: Test 3: inhibition of mRNA transcription, HOXA9 in MV4;11 cells; type: cell-based; conditions: 20 to 24 hours, fitted with GAPDH
Procedure: as §4, §5

[2] = Test 4: pharmacokinetic study, oral, mouse; conditions: for AUC(0-t): male, NOD.CB17-Prkdcscid/J, plasma, po, 100 mg/kg; for compound-exposure in plasma (in words): summary of Test 4 table, oral 100 mg/kg
Procedure: Test 4: Pharmacokinetic Study
(§6) The test compound suspended in 0.5% methylcellulose was orally administered to 7-week-old male NOD. CB17-Prkdcscid/J mouse in a dose of 100 mg/kg. The blood sample was taken from jugular vein without anesthesia over time for 24 hours. The blood sample was centrifuged to obtain plasma. The plasma was pre-treated by methanol extraction method, and then analyzed with an LC-MS/MS to determine the concentration of the test compound. Based on the data from 0 hour after the administration until the time (t) when there was the final detection in the plasma, AUC was calculated by trapezoidal method.

[3] = mouse, in vivo, po, 100 mg/kg
Procedure: Test 4: Pharmacokinetic Study
as §6

Row | Compound | IC50 [1] [nM] | IC50 (RS4; 11 cells) [nM] | IC50 (MOLM-13 cells) [nM] | AUC(0-t) [2] [ng·h/mL] | compound-exposure in plasma (in words) [2] | menin-MLL binding inhibition activity (in words) [1] | cell proliferation inhibition activity, good (in words) (RS4; 11 cells) | cell proliferation inhibitory activity, potent (in words) (RS4; 11 cells) | mRNA at 1 μM (% control) MEIS1 (MEIS1) [% control] | mRNA transcription inhibition activity (in words) (MEIS1) | mRNA at 1 μM (% control) HOXA9 (HOXA9) [% control] | AUC(0-t) [3] [ng·h/mL] | compound-exposure in plasma (in words) [3]
1 | O=C([C@H]1N[C@H]2CC[C@@H]1C[C@@H]2CC1CC1)N1CC2(C1)CN(c1c(C(F)(F)F)cnc3sc(CC(F)(F)F)cc13)C2 [Example 1, [(1S,3S,4R,6S)-6-(Cyclopropylmethyl)-2-azabicyclo[2.2.2]octan-3-yl]{6-[2-(2,2,2-trifluoroethyl)-5-(trifluoromethyl)thieno[2,3-b]pyridin-4-yl]-2,6-diazaspiro[3.3]heptan-2-yl}methanone] | 36.5 | 90 | 280 | 10300 | good compound-exposure in plasma | potent menin-MLL binding inhibition activity | good cell proliferation inhibition activity | potent cell proliferation inhibitory activity | 31.8 | mRNA transcription inhibition activity | 55.0 |  | 
2 | O=C([C@H]1N[C@H]2CC[C@@H]1[C@H](F)[C@@H]2CC1CC1)N1CC2(C1)CN(c1c(C(F)(F)F)cnc3sc(CC(F)(F)F)cc13)C2 [Example 11, [(1S,3S,4S,5R,6R)-6-(cyclopropylmethyl)-5-fluoro-2-azabicyclo[2.2.2]octan-3-yl]{6-[2-(2,2,2-trifluoroethyl)-5-(trifluoromethyl)thieno[2,3-b]pyridin-4-yl]-2,6-diazaspiro[3.3]heptan-2-yl}methanone] | 18.8 | 80 | 150 | 6740 | good compound-exposure in plasma | potent menin-MLL binding inhibition activity | good cell proliferation inhibition activity | potent cell proliferation inhibitory activity | 20.6 | mRNA transcription inhibition activity | 45.0 |  | 
3 | [2H]C([2H])=C1C[C@@H]2CC[C@H]1[C@@H](C(=O)N1CCC3(CC1)CN(c1c(C(F)(F)F)cnc4sc(CC(F)(F)F)cc14)C3)N2 [Example 21, [(1S,3S,4R)-5-(^2H2)methylidene-2-azabicyclo[2.2.2]octan-3-yl]{2-[2-(2,2,2-trifluoroethyl)-5-(trifluoromethyl)thieno[2,3-b]pyridin-4-yl]-2,7-diazaspiro[3.5]nonan-7-yl}methanone] |  |  |  |  |  |  | good cell proliferation inhibition activity | potent cell proliferation inhibitory activity |  |  |  | 24300 | good compound-exposure in plasma
4 | [2H]C([2H])=C1C[C@@H]2CC[C@H]1[C@@H](C(=O)N1CCC3(CC1)CN(c1c(C#N)cnc4sc(CC(F)(F)F)cc14)C3)N2 [Example 24, 4-{7-[(1S,3S,4R)-5-(^2H2)methylidene-2-azabicyclo[2.2.2]octane-3-carbonyl]-2,7-diazaspiro[3.5]nonan-2-yl}-2-(2,2,2-trifluoroethyl)thieno[2,3-b]pyridine-5-carbonitrile] |  |  |  |  |  |  | good cell proliferation inhibition activity | potent cell proliferation inhibitory activity |  |  |  | 6970 | good compound-exposure in plasma

Further lines, with some results ahead:

Row | IC50 [1] [nM] | IC50 (RS4; 11 cells) [nM] | IC50 (MOLM-13 cells) [nM] | AUC(0-t) [2] [ng·h/mL] | compound-exposure in plasma (in words) [2] | Compound | menin-MLL binding inhibition activity (in words) [1] | cell proliferation inhibition activity, good (in words) (RS4; 11 cells) | cell proliferation inhibitory activity, potent (in words) (RS4; 11 cells) | mRNA at 1 μM (% control) MEIS1 (MEIS1) [% control] | mRNA transcription inhibition activity (in words) (MEIS1) | mRNA at 1 μM (% control) HOXA9 (HOXA9) [% control] | AUC(0-t) [3] [ng·h/mL] | compound-exposure in plasma (in words) [3]
5 | 7.3 | 60 | 90 | 8970 | good compound-exposure in plasma | N#Cc1cnc2sc(CC(F)(F)F)cc2c1N1CC2(CN(C(=O)[C@H]3N[C@H]4CC[C@@H]3[C@H](F)[C@@H]4CC3CC3)C2)C1 [Example 12, 4-{6-[(1S,3S,4S,5R,6R)-6-(cyclopropylmethyl)-5-fluoro-2-azabicyclo[2.2.2]octane-3-carbonyl]-2,6-diazaspiro[3.3]heptan-2-yl}-2-(2,2,2-trifluoroethyl)thieno[2,3-b]pyridine-5-carbonitrile] |  |  |  | 18.4 |  | 42.6 |  | 
6 | 21.7 | 260 | 550 |  |  | N#Cc1cnc2sc(CC(F)(F)F)cc2c1N1CC2(CN(C(=O)[C@H]3N[C@H]4CC[C@@H]3[C@@H](F)[C@H]4CC3CC3)C2)C1 [Example 14, 4-{6-[(1S,3S,4S,5S,6S)-6-(cyclopropylmethyl)-5-fluoro-2-azabicyclo[2.2.2]octane-3-carbonyl]-2,6-diazaspiro[3.3]heptan-2-yl}-2-(2,2,2-trifluoroethyl)thieno[2,3-b]pyridine-5-carbonitrile] | potent menin-MLL binding inhibition activity | good cell proliferation inhibition activity |  | 38.5 | mRNA transcription inhibition activity | 51.4 |  | 
